Assay results published in paper PMC12487594, “Contusive spinal cord injury causes Nav1.8 dysfunction to upregulate small sensory neuron excitability” (The Journal of Physiology, 2025).
Peptide text beside a SMILES is read from it. * marks the point of attachment. Cbz = O=C(OCc1ccccc1)*; Boc = CC(C)(C)OC(=O)*

Biological target: T1, Nav1.8 (Homo sapiens, UniProt Q9Y5Y9)
T1 construct: gene SCN10A
Test: whole-cell patch clamp of Nav1.[…] + FHF4A in ND7/[…] cells ([…] TTX), […] h pre-incubation; transient current
Format: cell-based

T1 sequence (Q9Y5Y9 whole entry, looked up): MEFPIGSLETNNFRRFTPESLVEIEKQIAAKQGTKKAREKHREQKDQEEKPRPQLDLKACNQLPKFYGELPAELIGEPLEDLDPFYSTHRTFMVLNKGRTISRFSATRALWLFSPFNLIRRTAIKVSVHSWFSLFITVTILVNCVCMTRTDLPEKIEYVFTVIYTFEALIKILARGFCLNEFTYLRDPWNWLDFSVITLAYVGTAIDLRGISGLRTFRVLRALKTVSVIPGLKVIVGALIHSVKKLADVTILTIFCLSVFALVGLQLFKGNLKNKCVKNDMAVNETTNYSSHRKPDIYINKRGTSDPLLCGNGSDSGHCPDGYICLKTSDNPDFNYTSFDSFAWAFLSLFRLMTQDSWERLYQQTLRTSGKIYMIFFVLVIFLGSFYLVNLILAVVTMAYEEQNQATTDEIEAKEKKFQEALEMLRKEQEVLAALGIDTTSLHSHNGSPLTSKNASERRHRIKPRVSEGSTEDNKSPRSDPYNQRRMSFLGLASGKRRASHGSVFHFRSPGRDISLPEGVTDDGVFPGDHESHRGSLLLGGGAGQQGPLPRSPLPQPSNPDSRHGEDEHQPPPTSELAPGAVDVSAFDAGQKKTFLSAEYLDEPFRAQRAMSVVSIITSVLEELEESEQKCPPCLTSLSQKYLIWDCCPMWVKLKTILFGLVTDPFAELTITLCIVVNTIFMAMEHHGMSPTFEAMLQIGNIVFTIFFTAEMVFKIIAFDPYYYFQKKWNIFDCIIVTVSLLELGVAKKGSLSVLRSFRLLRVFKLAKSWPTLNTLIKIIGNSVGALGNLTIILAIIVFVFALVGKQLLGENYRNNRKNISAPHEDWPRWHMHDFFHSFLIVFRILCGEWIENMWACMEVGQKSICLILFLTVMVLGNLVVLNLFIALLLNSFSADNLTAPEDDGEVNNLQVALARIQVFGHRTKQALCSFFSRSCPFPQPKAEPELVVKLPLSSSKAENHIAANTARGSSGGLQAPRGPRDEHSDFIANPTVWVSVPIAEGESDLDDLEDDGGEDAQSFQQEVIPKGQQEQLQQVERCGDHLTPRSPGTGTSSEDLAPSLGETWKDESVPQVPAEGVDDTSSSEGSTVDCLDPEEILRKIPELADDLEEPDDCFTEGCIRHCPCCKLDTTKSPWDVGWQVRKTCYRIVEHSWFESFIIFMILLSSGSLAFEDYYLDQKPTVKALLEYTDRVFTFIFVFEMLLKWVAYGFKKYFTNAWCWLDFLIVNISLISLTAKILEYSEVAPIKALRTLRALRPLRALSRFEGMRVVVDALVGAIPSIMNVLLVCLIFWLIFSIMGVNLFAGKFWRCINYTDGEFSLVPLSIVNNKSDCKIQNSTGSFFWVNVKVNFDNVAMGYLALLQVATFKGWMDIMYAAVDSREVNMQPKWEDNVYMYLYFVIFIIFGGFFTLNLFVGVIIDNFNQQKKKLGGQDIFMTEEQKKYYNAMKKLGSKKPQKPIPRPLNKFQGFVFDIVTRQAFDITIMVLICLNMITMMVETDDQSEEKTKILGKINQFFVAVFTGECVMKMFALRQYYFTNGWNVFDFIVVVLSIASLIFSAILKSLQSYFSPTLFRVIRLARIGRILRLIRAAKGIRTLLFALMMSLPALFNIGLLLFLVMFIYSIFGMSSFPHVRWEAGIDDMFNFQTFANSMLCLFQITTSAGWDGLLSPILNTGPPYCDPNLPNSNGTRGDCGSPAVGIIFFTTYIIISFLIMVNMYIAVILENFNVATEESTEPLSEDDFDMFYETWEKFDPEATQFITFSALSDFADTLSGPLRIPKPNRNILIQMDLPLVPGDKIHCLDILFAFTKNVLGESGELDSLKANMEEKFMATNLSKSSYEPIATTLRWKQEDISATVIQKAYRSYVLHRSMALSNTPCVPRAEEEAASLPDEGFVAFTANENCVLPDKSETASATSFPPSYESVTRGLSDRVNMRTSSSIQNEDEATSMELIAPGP

CC(C)C[C@H](NC(=O)[C@H](Cc1ccccc1)NC(=O)OCc1ccccc1)C(=O)N1CCC[C@H]1C(=O)N[C@@H](CCCCNC(=O)OC(C)(C)C)C(N)=O [ZL0177] (Cbz-FLPK(Boc)-NH2)
IC50: ~19.5 µM
